From ChEMBL document CHEMBL1201862, “PubChem BioAssay data set” (2004) come the findings set out here.

What is called EC50 is the concentration that produces a half-maximal response. A word on the AC50: it is the concentration giving half of the maximal activity seen. One may read the Ki as the equilibrium dissociation constant of an inhibitor or competing ligand from its target. One may read the IC50 as the concentration needed to halve the response being measured.

Activity calls are given as the source filed them.

The nature of assay [1]: C. albicans growth with fluconazole, confirmation, fluorescence, retest (AID 2467). It counts as functional, cell-based.
Assay [2] in a line: NIH-3T3 fibroblast cytotoxicity, dose response, cytotoxicity control, cell-based, fluorescence, Alamar Blue, secondary assay (AID 2327).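 Also: NIH-3T3 mouse fibroblasts cultured with fluconazole at 8 µg/mL.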 The class given is functional. (Resazurin is reduced to fluorescent resorufin, in cell work by metabolically active cells.)
For assay [3], the target named is Multidrug resistance protein CDR2 (Candida albicans (strain SC5314 / ATCC MYA-2876) (Yeast), UniProt P78595). The assay is described as follows: CaCDR2 efflux pump inhibitors in yeast, dose response, S. cerevisiae AD1-8u, singleplex, Cherry Pick1 hits (AID 588604). The class given is functional.
Chain of Multidrug resistance protein CDR2 (P78595 whole entry): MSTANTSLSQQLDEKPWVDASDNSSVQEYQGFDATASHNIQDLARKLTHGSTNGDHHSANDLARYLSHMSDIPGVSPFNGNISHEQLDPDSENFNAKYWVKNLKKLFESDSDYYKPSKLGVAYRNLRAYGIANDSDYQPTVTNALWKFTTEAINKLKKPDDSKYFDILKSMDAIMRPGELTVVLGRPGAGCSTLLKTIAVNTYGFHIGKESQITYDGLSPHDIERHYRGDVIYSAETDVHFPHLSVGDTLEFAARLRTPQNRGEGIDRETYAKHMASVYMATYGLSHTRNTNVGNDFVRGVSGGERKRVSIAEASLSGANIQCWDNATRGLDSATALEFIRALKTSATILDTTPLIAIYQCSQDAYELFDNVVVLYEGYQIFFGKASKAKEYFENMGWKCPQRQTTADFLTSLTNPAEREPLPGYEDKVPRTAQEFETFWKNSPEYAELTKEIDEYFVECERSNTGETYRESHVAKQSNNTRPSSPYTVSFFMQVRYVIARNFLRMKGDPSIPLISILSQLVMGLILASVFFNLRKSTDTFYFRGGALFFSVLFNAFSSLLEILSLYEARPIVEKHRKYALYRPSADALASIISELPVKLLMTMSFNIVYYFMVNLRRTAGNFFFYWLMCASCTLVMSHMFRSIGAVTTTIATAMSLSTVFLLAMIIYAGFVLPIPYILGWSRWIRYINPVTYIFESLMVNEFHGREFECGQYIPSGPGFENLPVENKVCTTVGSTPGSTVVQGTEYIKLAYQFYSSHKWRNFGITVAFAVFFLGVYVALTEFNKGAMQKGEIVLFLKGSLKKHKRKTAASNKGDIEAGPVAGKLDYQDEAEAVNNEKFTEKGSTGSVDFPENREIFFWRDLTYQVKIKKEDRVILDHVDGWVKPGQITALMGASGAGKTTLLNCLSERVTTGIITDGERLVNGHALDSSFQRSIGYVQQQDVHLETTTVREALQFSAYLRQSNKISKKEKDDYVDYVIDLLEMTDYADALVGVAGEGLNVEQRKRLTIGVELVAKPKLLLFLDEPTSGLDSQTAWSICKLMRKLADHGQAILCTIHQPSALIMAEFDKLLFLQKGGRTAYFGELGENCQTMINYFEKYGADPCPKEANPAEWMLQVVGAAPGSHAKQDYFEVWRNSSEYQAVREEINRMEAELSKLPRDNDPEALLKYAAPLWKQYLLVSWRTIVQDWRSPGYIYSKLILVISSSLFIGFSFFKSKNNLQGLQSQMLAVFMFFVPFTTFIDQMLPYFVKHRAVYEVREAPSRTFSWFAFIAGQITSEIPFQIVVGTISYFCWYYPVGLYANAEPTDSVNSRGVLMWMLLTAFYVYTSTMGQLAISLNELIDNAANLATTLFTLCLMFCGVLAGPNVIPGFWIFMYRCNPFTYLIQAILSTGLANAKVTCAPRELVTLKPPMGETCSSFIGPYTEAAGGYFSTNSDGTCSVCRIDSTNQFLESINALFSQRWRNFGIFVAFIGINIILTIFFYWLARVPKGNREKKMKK
Assay [4] has as its target T1, DNA repair protein RAD52 homolog (Homo sapiens, UniProt P43351).
T1 sequence (P43351 whole entry): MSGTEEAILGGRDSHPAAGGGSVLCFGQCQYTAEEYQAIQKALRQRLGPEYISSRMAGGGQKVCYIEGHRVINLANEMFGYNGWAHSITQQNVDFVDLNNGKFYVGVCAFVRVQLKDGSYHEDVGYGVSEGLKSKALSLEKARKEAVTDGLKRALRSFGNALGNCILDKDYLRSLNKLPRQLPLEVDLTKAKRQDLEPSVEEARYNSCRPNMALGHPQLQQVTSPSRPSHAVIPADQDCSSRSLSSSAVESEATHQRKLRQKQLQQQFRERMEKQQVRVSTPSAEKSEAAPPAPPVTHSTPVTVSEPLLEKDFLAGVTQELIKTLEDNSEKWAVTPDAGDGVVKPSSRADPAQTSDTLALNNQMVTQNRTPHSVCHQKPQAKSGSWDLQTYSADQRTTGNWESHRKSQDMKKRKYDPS
It counts as functional, biochemical.

For another assay, the target named is LIM domain kinase 1 (Homo sapiens, UniProt P53667). Description: Navigating the Kinome. Panel member name: LIMK1. The class given is functional.
Chain of LIM domain kinase 1 (P53667 whole entry, the tested form may be a part): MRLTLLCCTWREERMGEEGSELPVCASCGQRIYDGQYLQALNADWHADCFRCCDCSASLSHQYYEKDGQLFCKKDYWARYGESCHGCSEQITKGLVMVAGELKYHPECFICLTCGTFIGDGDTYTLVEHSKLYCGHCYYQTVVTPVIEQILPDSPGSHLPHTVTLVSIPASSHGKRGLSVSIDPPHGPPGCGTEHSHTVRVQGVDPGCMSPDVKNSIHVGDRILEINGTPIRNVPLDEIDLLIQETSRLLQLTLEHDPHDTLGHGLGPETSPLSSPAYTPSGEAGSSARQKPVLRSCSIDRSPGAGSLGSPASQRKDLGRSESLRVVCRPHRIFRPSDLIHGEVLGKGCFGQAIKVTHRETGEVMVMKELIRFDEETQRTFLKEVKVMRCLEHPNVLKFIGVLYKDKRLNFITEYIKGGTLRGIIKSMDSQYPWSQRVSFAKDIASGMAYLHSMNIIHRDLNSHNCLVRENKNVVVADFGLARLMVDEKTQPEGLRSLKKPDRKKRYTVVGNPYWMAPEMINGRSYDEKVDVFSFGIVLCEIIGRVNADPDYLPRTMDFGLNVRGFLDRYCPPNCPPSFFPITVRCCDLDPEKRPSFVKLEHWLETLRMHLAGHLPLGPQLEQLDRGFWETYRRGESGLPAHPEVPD
For assay [5], the target named is Death-associated protein kinase 3 (Homo sapiens, UniProt O43293). It counts as functional.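 Also: measured as one member of a kinome-wide profiling panel.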
Chain of Death-associated protein kinase 3 (O43293 whole entry): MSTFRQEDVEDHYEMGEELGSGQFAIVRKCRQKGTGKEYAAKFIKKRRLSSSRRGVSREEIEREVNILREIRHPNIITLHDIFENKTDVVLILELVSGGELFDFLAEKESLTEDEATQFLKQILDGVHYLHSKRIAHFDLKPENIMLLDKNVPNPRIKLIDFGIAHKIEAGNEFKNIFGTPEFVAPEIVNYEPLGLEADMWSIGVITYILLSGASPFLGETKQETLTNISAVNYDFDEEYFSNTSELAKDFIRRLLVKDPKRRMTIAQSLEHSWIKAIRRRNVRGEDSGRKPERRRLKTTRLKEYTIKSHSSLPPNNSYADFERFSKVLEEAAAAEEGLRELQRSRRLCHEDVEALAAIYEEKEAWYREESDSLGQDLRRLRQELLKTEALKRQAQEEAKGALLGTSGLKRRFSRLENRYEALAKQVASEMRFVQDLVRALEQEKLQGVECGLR
The target in assay [6] is G protein-coupled receptor kinase 5 (Homo sapiens, UniProt P34947). Description: Navigating the Kinome. Panel member name: GPRK5. The class given is functional.
Chain of G protein-coupled receptor kinase 5 (P34947 whole entry): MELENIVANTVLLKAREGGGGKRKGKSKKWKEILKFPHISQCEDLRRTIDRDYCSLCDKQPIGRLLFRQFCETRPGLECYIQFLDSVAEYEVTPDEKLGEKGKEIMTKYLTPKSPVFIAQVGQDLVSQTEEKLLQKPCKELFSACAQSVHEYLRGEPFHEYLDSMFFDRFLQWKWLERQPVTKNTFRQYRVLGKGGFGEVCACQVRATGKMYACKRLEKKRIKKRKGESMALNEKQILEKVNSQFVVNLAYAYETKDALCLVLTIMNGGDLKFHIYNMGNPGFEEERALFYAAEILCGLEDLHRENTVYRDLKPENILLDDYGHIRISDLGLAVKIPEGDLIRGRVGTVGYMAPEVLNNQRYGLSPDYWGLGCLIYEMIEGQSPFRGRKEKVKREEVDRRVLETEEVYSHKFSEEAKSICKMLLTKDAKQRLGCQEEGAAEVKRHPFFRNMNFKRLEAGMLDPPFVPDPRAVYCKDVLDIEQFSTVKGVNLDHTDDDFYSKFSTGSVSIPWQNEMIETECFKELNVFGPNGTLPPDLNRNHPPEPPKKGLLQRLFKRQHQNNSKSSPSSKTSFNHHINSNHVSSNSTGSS
In assay [7] the target is Serine/threonine-protein kinase Chk1 (Homo sapiens, UniProt O14757). The class given is functional.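 Also: measured as one member of a kinome-wide kinase profiling panel.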
Chain of Serine/threonine-protein kinase Chk1 (O14757 whole entry): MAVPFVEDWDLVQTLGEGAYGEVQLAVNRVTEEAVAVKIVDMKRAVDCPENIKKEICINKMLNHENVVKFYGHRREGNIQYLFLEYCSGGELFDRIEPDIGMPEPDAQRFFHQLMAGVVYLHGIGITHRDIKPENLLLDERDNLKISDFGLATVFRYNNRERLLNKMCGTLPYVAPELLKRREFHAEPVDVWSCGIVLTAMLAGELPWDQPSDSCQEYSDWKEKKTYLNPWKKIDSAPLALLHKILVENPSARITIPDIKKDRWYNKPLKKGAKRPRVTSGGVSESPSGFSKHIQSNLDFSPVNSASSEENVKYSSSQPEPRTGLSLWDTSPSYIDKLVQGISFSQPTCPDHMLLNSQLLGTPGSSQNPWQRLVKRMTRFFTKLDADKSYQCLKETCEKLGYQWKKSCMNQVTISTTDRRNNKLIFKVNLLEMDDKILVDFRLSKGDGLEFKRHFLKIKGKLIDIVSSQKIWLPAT
For assay [8], the target named is T2, High affinity choline transporter 1 (Homo sapiens, UniProt Q9GZV3).
T2 sequence (Q9GZV3 whole entry): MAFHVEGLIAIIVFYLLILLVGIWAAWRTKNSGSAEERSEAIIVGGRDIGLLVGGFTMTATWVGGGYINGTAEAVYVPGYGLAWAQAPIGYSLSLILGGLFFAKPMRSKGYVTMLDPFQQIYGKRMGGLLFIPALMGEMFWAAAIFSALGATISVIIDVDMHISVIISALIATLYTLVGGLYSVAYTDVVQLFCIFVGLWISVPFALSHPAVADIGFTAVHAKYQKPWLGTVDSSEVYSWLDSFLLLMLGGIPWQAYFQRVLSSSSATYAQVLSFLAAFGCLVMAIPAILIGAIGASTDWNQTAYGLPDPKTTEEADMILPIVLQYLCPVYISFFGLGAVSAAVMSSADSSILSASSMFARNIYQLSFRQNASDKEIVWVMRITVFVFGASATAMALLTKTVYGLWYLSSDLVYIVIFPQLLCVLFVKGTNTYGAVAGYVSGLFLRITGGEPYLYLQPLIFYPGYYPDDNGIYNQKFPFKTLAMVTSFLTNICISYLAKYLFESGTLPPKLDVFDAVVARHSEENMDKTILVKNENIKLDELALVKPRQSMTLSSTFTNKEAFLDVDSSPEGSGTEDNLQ
Description: CHT inhibitors, dose response, cell-based, 10-point CRC, membrane potential dye (AID 588401).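 Also: membrane potential dye fluorescence of choline-evoked depolarization via CHT.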 The class given is functional.

Assay [9] concerns the target T2, High affinity choline transporter 1. The assay is described as follows: CHT inhibitors, dose response, cell-based, 5-point CRC, membrane potential dye (AID 504840). The class given is functional.
Assay [10] deals with Melanin-concentrating hormone receptor 1 (Homo sapiens, UniProt Q99705). The assay is described as follows: Late-stage fluorescence-based counterscreen for antagonists of the G-protein coupled receptor 7 (GPR7): cell-based dose response assay to identify antagonists of the melanin-concentrating hormone receptor 1 (MCHR1) Set 5. It counts as functional.
Chain of Melanin-concentrating hormone receptor 1 (Q99705 whole entry): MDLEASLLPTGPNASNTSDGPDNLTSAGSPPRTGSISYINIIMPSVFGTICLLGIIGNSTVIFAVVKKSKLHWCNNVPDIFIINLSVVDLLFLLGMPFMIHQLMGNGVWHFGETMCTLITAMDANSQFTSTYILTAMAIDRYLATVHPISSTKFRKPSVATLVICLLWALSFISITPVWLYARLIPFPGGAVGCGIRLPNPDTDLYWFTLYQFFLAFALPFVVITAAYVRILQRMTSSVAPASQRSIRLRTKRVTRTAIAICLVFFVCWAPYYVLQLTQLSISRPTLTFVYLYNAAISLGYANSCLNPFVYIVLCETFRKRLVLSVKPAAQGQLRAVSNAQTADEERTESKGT
For assay [11], the target named is T3, Neuropeptides B/W receptor type 1 (Homo sapiens, UniProt P48145).
T3 sequence (P48145 whole entry): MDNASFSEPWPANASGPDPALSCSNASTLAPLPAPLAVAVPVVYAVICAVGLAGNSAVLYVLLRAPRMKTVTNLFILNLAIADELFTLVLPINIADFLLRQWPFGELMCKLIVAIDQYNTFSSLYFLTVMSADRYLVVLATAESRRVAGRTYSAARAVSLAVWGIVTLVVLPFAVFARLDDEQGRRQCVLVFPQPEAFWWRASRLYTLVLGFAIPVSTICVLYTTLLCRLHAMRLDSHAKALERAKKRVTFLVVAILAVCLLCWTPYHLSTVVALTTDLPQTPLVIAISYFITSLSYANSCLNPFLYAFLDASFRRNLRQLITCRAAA
Description: GPR7 antagonist potency, late-stage follow-up, cell-based, fluorescence, dose response, set 5 (AID 588566). The class given is functional.

Turning to `Cc1c(CCOC(=O)CC23CC4CC(CC(C)(C4)C2)C3)sc[n+]1Cc1ccc([N+](=O)[O-])cc1`, the EC50 in [1] was > 38 µM (not active); in [2], > 150 µM (inactive); in [3] it was 10.9 µM (active). For the same compound, the AC50 in assay [4] is 15.6 µM (active).

Take `Cc1nn(C)c(C)c2cc([N+](=O)[O-])cc1-2`: the Ki is 2 µM (active) on LIM domain kinase 1, 3.98 µM (active) in [5], 3.98 µM (active) in [6] and 1.58 µM (active) in [7].

On to `COc1ccc(C(=O)NCCCSC)cc1OC1CCN(C(C)C)CC1`, for which the 50% inhibitory concentration (IC50) in [8] was 4.74 µM (active); in assay [9] it was 8.13 µM (active).

For the compound `CCOC(=O)C(C(N)=O)c1c(Cl)cnn(Cc2cccc3ccccc23)c1=O` (configuration not stated), the IC50 is > 20 µM (inactive) in [10] and 11.8 µM (inactive) in assay [11].
